Earlier results, collected in patent publication US20180369425A1, “LINKED AND OTHER pH-TRIGGERED COMPOUNDS” (priority 2017, published 2018).

Legend:
HeLa cells = settings: two hours, up to 2 μM; cited from earlier work
[1] = solvents listed; cited from earlier work

| Compound | cell death with amanitin alone (HeLa cells) | Solubility [1] |
| --- | --- | --- |
| amanitin | does not induce cell death | – |
| C#CCNC(=O)CCCCC[N+]1=C(/C=C/C=C/C=C/C=C2\N(CCCCS(=O)(=O)[O-])c3ccc4ccccc4c3C2(C)C)C(C)(C)c2c1ccc1ccccc21 [ICG-alkyne] | – | DMSO, DMF, Acetonitrile, Methanol |
